Source: PubChem BioAssay (NCI)
“And” between values parts separate entries of the source, which are not always exact repeats. Equal entries are not always repeated.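 Exposure lasted 48 hours, with cells grown in 96-well plates and compounds tested at five concentrations. GI50: concentration for 50% inhibition of growth. TGI: concentration producing complete growth inhibition.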

Assays:
Assay in all cases: NCI-60 cell line screen, 48 h
PC-3 prostate = system: PC-3 prostate
SK-MEL-2 melanoma = system: SK-MEL-2 melanoma
ACHN renal = system: ACHN renal
TK-10 renal = system: TK-10 renal
NCI-H522 lung = system: NCI-H522 lung
786-0 renal = system: 786-0 renal
SF-295 CNS = system: SF-295 CNS
SN12C renal = system: SN12C renal
SF-539 CNS = system: SF-539 CNS
NCI/ADR-RES ovarian = system: NCI/ADR-RES ovarian

| SMILES | GI50 (PC-3 prostate) | TGI (PC-3 prostate) | GI50 (SK-MEL-2 melanoma) | TGI (SK-MEL-2 melanoma) | GI50 (ACHN renal) | TGI (ACHN renal) | GI50 (TK-10 renal) | TGI (TK-10 renal) | GI50 (NCI-H522 lung) | TGI (NCI-H522 lung) | GI50 (786-0 renal) | TGI (786-0 renal) | GI50 (SF-295 CNS) | TGI (SF-295 CNS) | GI50 (SN12C renal) | TGI (SN12C renal) | GI50 (SF-539 CNS) | TGI (SF-539 CNS) | GI50 (NCI/ADR-RES ovarian) | TGI (NCI/ADR-RES ovarian) |
| --- | --- | --- | --- | --- | --- | --- | --- | --- | --- | --- | --- | --- | --- | --- | --- | --- | --- | --- | --- | --- |
| COc1ccc2c(c1)CCC1C2CC[C@@]2(C)C1CC[C@@H]2NC(=O)Cc1ccc(O)c(O)c1 (stereo partly specified) | 6.3 µM | 19.4 µM | 15.2 µM | 33.8 µM | 6.01 µM | 18.9 µM | 8.86 µM | 22.1 µM | 1.9 µM | 4.25 µM | 5 µM | 17.7 µM | 13.4 µM | 32.1 µM | 5.79 µM | 19.6 µM | 4.84 µM | 17.3 µM | 10.7 µM | 33.6 µM |
| CSc1ccc(C2=NN(C(C)=O)C(c3ccc(-c4cc(Cl)c(Cl)cc4Cl)o3)C2)cc1 (stereo unspecified) | 11.2 µM | 30.7 µM | 16.8 µM | 35.1 µM | 15.8 µM | 29.9 µM | 24.8 µM | 50.3 µM | 13.2 µM | 29.7 µM | 18.9 µM | 32.9 µM | 18.3 µM | 45.5 µM | 14.5 µM | 27.6 µM | 15.8 µM | 29.5 µM | 16.7 µM | 34.1 µM |
| COc1nc(N)nc2c1ncn2C1CC(O)C(CO)O1 (stereo unspecified) | – | > 100 µM | – | > 100 µM | – | > 100 µM | – | > 100 µM | – | > 100 µM | – | > 100 µM | – | > 100 µM | – | > 100 µM | – | > 100 µM | – | > 100 µM |
| Cc1cc2c(F)c(Oc3ncnc(Nc4ccc(N5C[C@@H](C)N[C@@H](C)C5)cc4)c3C#N)cc(F)c2[nH]1 | 3.05 µM | 11.4 µM | 2.2 µM | 4.67 µM | 2.05 µM | 4.21 µM | 2.65 µM | 6.31 µM | 2.14 µM | 4.54 µM | 1.62 µM | 3.64 µM | 1.95 µM | 3.94 µM | 3.39 µM | 14.3 µM | 1.53 µM | 2.94 µM | 3.85 µM | 20.9 µM |
| COc1cc(-c2nn(-c3cccc(NC(=O)Nc4ccc(Cl)c(C(F)(F)F)c4)c3)cc2-c2ccncc2)ccc1Cl | 0.69 µM | 2.45 µM | 1.01 µM | 2.58 µM | 1.1 µM | 15.6 µM | 1.51 µM | 13.5 µM | 1.14 µM | 6.06 µM | 1.61 µM | 8.02 µM | 0.84 µM | 2.54 µM | 1.14 µM | 9.23 µM | 1.66 µM | 6.34 µM | 1.04 µM | 7.99 µM |
| O=C1C2CCN(CC2)C1CN1CCOCC1 (stereo unspecified) | – | 34.7 µM | – | 32.5 µM | – | 4.18 µM | – | 13.2 µM | – | 1.99 µM | – | 3.55 µM | – | 33.9 µM | – | 8.28 µM | – | 29 µM | – | 3.41 µM |
| C[C@@H]1C[C@H](N)C[C@H](c2ccncc2NC(=O)c2ccc(F)c(-c3c(F)cccc3F)n2)C1 | 3.83 µM and 2.68 µM | 17.5 µM and > 10 µM | 17.1 µM and > 10 µM | 34.8 µM and > 10 µM | 12.1 µM and > 10 µM | 24.5 µM and > 10 µM | 13.1 µM and > 10 µM | 26.8 µM and > 10 µM | 13.2 µM and > 10 µM | 28.6 µM and > 10 µM | 12.2 µM and > 10 µM | 25.6 µM and > 10 µM | 12.6 µM and > 10 µM | 25.8 µM and > 10 µM | 12.3 µM and > 10 µM | 25.7 µM and > 10 µM | 11.3 µM and > 10 µM | 23.5 µM and > 10 µM | 14.5 µM and > 10 µM | 30.6 µM and > 10 µM |
| NC(=O)c1cc(N2CC2)c([N+](=O)[O-])cc1[N+](=O)[O-] | – | > 200 µM | – | > 20 µM | > 200 µM | > 200 µM | – | > 200 µM | > 200 µM | > 200 µM | > 200 µM | > 200 µM | > 200 µM | > 200 µM | > 200 µM | > 200 µM | > 200 µM | > 200 µM | – | > 200 µM |
| O=C(O)Cc1cccc2c(=O)cc(-c3ccccc3)oc12 | > 955 µM | > 1000 µM | 844 µM | 250 µM and > 1000 µM | 813 µM | > 1000 µM | 990 µM | > 1000 µM | 285 µM | 250 µM and > 773 µM | > 250 µM | > 1000 µM | 400 µM | 250 µM and > 1000 µM | 508 µM | 250 µM and > 964 µM | 398 µM | > 250 µM and 838 µM | 194 µM | 250 µM and > 1000 µM |
| CCC1=C(c2ccc(OC)cc2)C(C)(C)Oc2c1ccc(O)c2CN1CCCC1 | 2.58 µM | 29.3 µM | 1.98 µM | 3.7 µM | 3.6 µM | > 100 µM | 5.26 µM | 31.3 µM | 1.97 µM | 3.96 µM | 4.02 µM | 20.2 µM | 2.33 µM | 6.01 µM | 3.74 µM | > 100 µM | 3.05 µM | 17.2 µM | 3.05 µM | 16 µM |
| NCCCCC(NC(=O)C(N)CCCN=C(N)N)C(=O)NC(CCCCN)C(=O)NC(CCCN=C(N)N)C(=O)NC(CCCN=C(N)N)C(=O)NC(CCC(N)=O)C(=O)NC(CCCN=C(N)N)C(=O)NC(CCCN=C(N)N)C(=O)NC(CCCN=C(N)N)C(=O)NCC(=O)NCC(=O)O (stereo unspecified) | > 50 µM | > 50 µM | > 50 µM | > 50 µM | > 50 µM | > 50 µM | > 50 µM | > 50 µM | > 50 µM | > 50 µM | > 50 µM | > 50 µM | > 50 µM | > 50 µM | > 50 µM | > 50 µM | > 50 µM | > 50 µM | > 50 µM | > 50 µM |
| CCOC(=O)c1[nH]c2cc(Cl)ccc2c1[C@@H](C(=O)NC(C)(C)C)N(CC)C(=O)CCCCC#Cc1cccc2c1CN(C1CCC(=O)NC1=O)C2=O (stereo partly specified) | < 0.01 µM | 9.36 µM | 1.47 µM | 4.15 µM | 1.42 µM | 13.3 µM | 2.65 µM | 16.1 µM | 1.8 µM | 25.8 µM | 0.249 µM | 8.63 µM | 1.14 µM | 3.88 µM | 0.283 µM | > 100 µM | 1.74 µM | 11.7 µM | 1.19 µM | > 100 µM |
| COc1cc2nc(Nc3cccc(Cl)c3)nc(N)c2cc1OC | 6.82 µM | 21 µM | 8.28 µM | 28.5 µM | 11.4 µM | 23.8 µM | 14.2 µM | 37.8 µM | 8.44 µM | 26.7 µM | 1.85 µM | 3.73 µM | 4.37 µM | > 36.3 µM | 12 µM | 24.3 µM | 10.2 µM | 22.8 µM | 7.61 µM | 33.9 µM |
